Source: US5688488A, “Composition and method for tumor imaging” (priority 1995, dated 1997)

Assays:
physchem = type: physicochemical; conditions: water
Description: The crude product contained a mixture of folate-deferoxamine conjugates, wherein the folate is linked to DF via its α-carboxyl or γ-carboxyl group as well as unreacted folic acid. The two isomers of DF-folate were isolated and purified on a weak anion-exchange column. Briefly, the product mixture was loaded onto a 1.5 cm×15 cm […] column pre-equilibrated in 10 mM NH4 CO3 buffer (pH 7.9). The column was washed with 50 mL 10 mM NH4 HCO3 and then eluted with a 500 mL gradient of 80-180 mM NH4 HCO3 followed by 150 mL 500 mM NH4 HCO3. Three folate-containing peaks were obtained as detected by UV absorbance at 363 nm. Each peak was collected, lyophilized, and redissolved in deionized water. The purity of each component was confirmed by reverse-phase high pressure liquid chromatography (HPLC) with a 10 mm×250 mm Licrosorb RP-18 column (Altech, Deerfield, Ill.), and evaluation of the conjugates' molecular weights was determined by fast-atom bombardment mass spectroscopy (FAB-MS). The characteristic pKa values of the two DF-folate isomers were obtained by titration on a pH/ion analyzer (Corning, Corning, N.Y.). […] Since the two isoforms of DF-folate conjugate retain either a free γ-carboxyl or free α-carboxyl, they can be distinguished from each other and from unreacted folic acid by their characteristic pKa values, which were determined by titration.

[1] = target: T1, KB cell folate-binding protein (Homo sapiens, UniProt P15328); assay: Competitive binding assay using [^3 H]folic acid on KB cells; conditions: equimolar amount (100 pmoles each), 30 min, 4° C.
T1 construct: endogenous in cells; host or cells: KB cells
T1 sequence (P15328 25-257): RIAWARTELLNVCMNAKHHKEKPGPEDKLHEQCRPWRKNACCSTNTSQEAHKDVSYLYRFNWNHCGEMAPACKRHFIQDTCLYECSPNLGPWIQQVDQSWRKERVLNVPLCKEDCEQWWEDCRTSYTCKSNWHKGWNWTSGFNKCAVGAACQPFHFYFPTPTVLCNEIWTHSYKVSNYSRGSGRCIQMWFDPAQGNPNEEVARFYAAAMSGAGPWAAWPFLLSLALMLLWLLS
Description: (§1) Cell Culture. KB cells, a human nasopharyngeal epidermal carcinoma cell line that greatly overexpresses the folate binding protein, were cultured continuously as a monolayer at 37° C. in a humidified atmosphere containing 5% CO2 in folate-deficient modified Eagle's medium (FDMEM) (a folate-free modified Eagle's medium supplemented with 10% (v/v) heat-inactivated fetal calf serum as the only source of folate) containing penicillin (50 units/mL), streptomycin (50 μg/mL), and 2 mM L-glutamine. The final folate concentration in the complete FDMEM is the physiological range (~2 nM). 48 h prior to each experiment, the cells were transferred to 35 mm culture dishes at 5×10^5 cells per dish and grown to ~80% confluent.
The affinity of the DF-folate(α) and DF-folate(γ) conjugates for the KB cell folate-binding protein was evaluated in a competitive binding assay using [^3 H]folic acid as the receptor ligand. Briefly, 100 pmoles of [^3 H]folic acid and 100 pmoles of either DF-folate(α) or DF-folate(γ) dissolved in phosphate-buffered saline (PBS) were added to KB cells grown ~80% confluence in 1 mL FDMEM in 35 mm culture dishes. Following a 30 min incubation at 4° C., the cells were washed 3 times with cold PBS. Cell-associated [^3 H] folic acid was then determined by liquid scintillation counting, and the cellular protein content was evaluated by the BCA protein assay.

human KB cells tumors = type: in vivo, athymic mice; conditions: 29.6 mg tumor; ~45 hours post-injection
Description: To test the tumor-cell-selective uptake of metal-labeled radiopharmaceuticals in vivo, ~180 μCi of ^67 Ga-deferoxamine-folate conjugate (See FIG. 3) was administered to two tumor-bearing athymic mice. Tumors were generated in athymic mice by subcutaneous injecting human KB cells into the dorsal-lateral region of the mice according to procedures familiar to those of ordinary skill in the art. After establishment of tumors in the mice, ~180 μCi of ^67 Ga-deferoxamine-folate conjugate was administered intravenously. Approximately 45 hours post-injection, gamma images were obtained and the tissue distribution of ^67 Ga quantitated.
To test the viability of the FBP-receptor as a pathway for achieving tumor-cell-selective uptake of metal-labeled radiopharmaceuticals in vivo, ~180 μCi of ^67 Ga-deferoxamine-folate conjugate was administered intravenously to two tumor-bearing athymic mice via the femoral vein nine days after subcutaneous injection of 4×10^6 human KB cells. At approximately 45 hours post-injection, gamma images were obtained, the animals were sacrificed and dissected, and the tissue distribution of tracer was quantified by gamma counting (after storage of the weighted tissue samples for decay to a suitable ^67 Ga count rate). […] The tumor to blood ratio was 1500 and 1185 and the tumor to muscle ratio was 170 and 288 for each respective mouse.

KB cells [2] = assay: Uptake of ^67 Ga-DF-folate complex by cultured KB cells; type: cell-based, human; conditions: for saturating level of cellular uptake, of the total radioactivity added: concentration dependence
Description: as §1
Because folate and its conjugates bind to cell surface receptors at 4° C., but are capable of endocytosis only at higher temperatures, it is possible to separately evaluate the kinetics of binding the internalization of folate by measuring the rates of folate conjugate uptake at the two temperatures. […] By the end of the 30 min incubation, binding approached to saturation with ~18% of the initial radioactivity found associated with a cell surface.
Incubation at 37° C., a temperature which permits both binding and endocytosis, yielded similar kinetic results, however, maximal uptake reached 32% of the total conjugate added. Presumably, the difference in magnitude of the two cellular uptake curves reflects the ability of the folate receptor to internalize the conjugate and then recycle to the cell surface in its unoccupied form. […] This latter result is consistent with the inability of the α-conjugate to compete with free folate for the cell surface receptor.
To verify the involvement of a cell surface folate receptor in mediating the uptake of ^67 Ga-DF-folate(γ), binding and internalization of the complex were evaluated as a function of the complex's concentration. Cellular uptake of ^67 Ga-DF-folate(γ) was concentration dependent at both 4° C. and 37° C., saturating at levels of 20% and 35% of the total radioactivity added, respectively.

[3] = tested on: Subcutaneous KB Cell Tumors
[4] = tested on: membrane transport protein; conditions: facilitated transport by membrane transport protein; cited from earlier work
[5] = target: membrane-bound folate-binding-protein receptor (FBP); conditions: cited from earlier work
[6] = tested on: Rat pheochromocytoma (PC-12) cells; assay: Rat pheochromocytoma cell uptake of biotin conjugated proteins, fluorescent microscope; type: cell-based; conditions: 37° C., 5, 15 and 33 minutes
Description: Rat pheochromocytoma (PC-12) cells were obtained from America Type Culture Collection and were grown (37° C., 5% CO2 in humidified air) attached to plastic flasks for 2 to 3 weeks until confluent in a medium of 85% RMPI 1640, 10% v/v heat inactivated horse serum, and 5% fetal calf serum containing 1% streptomycin-penicillin.
Biotin and fluorescein labeled insulin was prepared.
The rat PC12 cells were grown in modified RMPI 1640 medium as a monolayer on the bottom of a culture flask. Before removing the cells, the monolayer was washed with a 20 ml portion of fresh Locke's solution. The cells were then displaced into 20 ml of the Locke's solution by gentle agitation with a stream Locke's solution. […] The tubes were allowed to incubate at 37° C. At intervals of 5, 15 and 33 minutes, 0.5 ml of each cell suspension was removed and pelleted at 10,000×g for 10 seconds. The cell pellet was washed and repelleted twice in 1 ml Locke's solution and then fixed by addition of 200 l of a 2% formalin solution in phosphate buffered saline. Thirteen microliters of the fixed cell suspension was then added to a microscope slide and viewed with the fluorescent microscope to detect internalized proteins.

[7] = tested on: KB cells (a human nasopharyngeal cell line); assay: Uptake of ^125 I-labeled folate-labeled protein by KB cells; type: cell-based
human HeLa cells = assay: Uptake of ^125 I-labeled folate-labeled RNase by HeLa cells; type: cell-based
[8] = 17 hours after intraperitoneal injection
KB cells [9] = assay: Visualization of ribonuclease endocytosis by KB cells using a confocal microscope; type: cell-based, human; conditions: 60 minute incubation
Description: RNase labeled only with fluoroscein was used as a control. Following extensive dialysis against growth medium, the control and folate-labeled RNase samples were added to separate cultures of KB cells. After 60 minute incubation, the cells were thoroughly washed and examined for uptake. […] Furthermore, using the confocal's capability of focusing on a single horizontal plane in each cultured cell, it was readily evident that vesicles filled with the fluorescent-labeled, folate-bound ribonuclease were forming on all regions of the cell surface, pinching off via endocytosis into the interior, and entering the cytoplasm. The vesicles, measuring […] across, were easily large enough to accommodate large biomolecules such as proteins and DNA plasmids.

[10] = tested on: white blood cells in whole human blood; conditions: 37° C., 2 hours
Description: Fluorescein-labeled RNase was either conjugated to folate or left unmodified (control) following the same general procedure set forth in Example 19. The folate-conjugated and control samples were then added to freshly drawn whole human blood, incubated at 37° C. for 2 hours and then washed thoroughly and examined under the fluorescence microscope.

BHK cells = assay: Ribonuclease-riboflavin uptake by BHK cells; type: cell-based; conditions: 10 μg/ml, various times (FIG. 4)

## CC(=O)N(O)CCCCCNC(=O)CCC(=O)N(O)CCCCCNC(=O)CCC(=O)N(O)CCCCCNC(=O)[C@H](CCC(=O)O)NC(=O)c1ccc(NCc2cnc3nc(N)[nH]c(=O)c3n2)cc1 [DF-folate(α)]
physchem; pKa
  pKa: 2.5
[1]
  decrease in bound [^3 H]folic acid: no ability to compete

## CC(=O)N([O-])CCCCCNC(=O)CCC(=O)N([O-])CCCCCNC(=O)CCC(=O)N([O-])CCCCCNC(=O)CCC(NC(=O)c1ccc(NCc2cnc3nc(N)[nH]c(=O)c3n2)cc1)C(=O)O.[67Ga+3] (stereo not drawn) [^67 Ga-DF-Folate]
Human KB cells tumors
  detection of tumor by gamma scintigraphy: readily detected by gamma scintigraphy
KB cells [2]; 4° C.
  time to half maximal binding: ~ 3 min
  saturating level of cellular uptake, of the total radioactivity added: 20%
KB cells [2]; 4° C., end of 30 min incubation
  initial radioactivity associated with cell surface: ~ 18%
KB cells [2]; 37° C.
  maximal uptake, of the total conjugate added: 32%
  saturating level of cellular uptake, of the total radioactivity added: 35%
KB cells [2]; 100-fold molar excess of free folate
  initial cellular uptake retained: 0.5%
KB cells [2]; equimolar unlabeled folic acid
  decrease in uptake: 50%
[3]; 8 mm tumors
  imaging of tumors in vivo with a gamma camera: 8 mm tumors were easily imaged in vivo
[3]; mouse, in vivo, iv, 270 min
  Tumor-to-Non-target Ratio: Tumor/blood: 48 ± 5
  Tumor-to-Non-target Ratio: Tumor/kidney: 1.4 ± 0.5
  Tumor-to-Non-target Ratio: Tumor/liver: 5.1 ± 0.5
  Tumor-to-Non-target Ratio: Tumor/muscle: 82 ± 16
[3]; mouse, in vivo, iv, 4.5 h
  Percentage of Injected Dose per Gram of Tissue: Blood: 0.046 ± 0.009 % of injected dose per gram
  Percentage of Injected Dose per Gram of Tissue: Heart: 0.025 ± 0.005 % of injected dose per gram
  Percentage of Injected Dose per Gram of Tissue: Kidney: 1.79 ± 0.82 % of injected dose per gram
  Percentage of Injected Dose per Gram of Tissue: Liver: 0.43 ± 0.03 % of injected dose per gram
  Percentage of Injected Dose per Gram of Tissue: Lungs: 0.052 ± 0.010 % of injected dose per gram
  Percentage of Injected Dose per Gram of Tissue: Muscle: 0.028 ± 0.005 % of injected dose per gram
  Percentage of Injected Dose per Gram of Tissue: Tumor: 2.22 ± 0.36 % of injected dose per gram

## Nc1nc2ncc(CNc3ccc(C(=O)N[C@@H](CCC(=O)O)C(=O)O)cc3)nc2c(=O)[nH]1 [folic acid, Folic acid, reference compound]
physchem; pKa1
  pKa: 2.5
physchem; pKa2
  pKa: 4.5
[4]
  Km: 1.5 µM
[5]
  Ka: 500 pM

## fluorescein labeled insulin: non-biotinylated fluorescein labeled insulin, control
[6]
  cellular internalization (fluorescent microscope): No evidence of internalization

## CC(=O)N(O)CCCCCNC(=O)CCC(=O)N(O)CCCCCNC(=O)CCC(=O)N(O)CCCCCNC(=O)CC[C@H](NC(=O)c1ccc(NCc2cnc3nc(N)[nH]c(=O)c3n2)cc1)C(=O)O [DF-folate(γ)]
physchem; pKa
  pKa: 4.5
[1]
  decrease in bound [^3 H]folic acid: 50%

B1: RNase-Folate: ^125 I bovine ribonuclease with 12-14 covalently bound folates per protein molecule (conjugate, UniProt P61823 27-150, looked up)
Ribonuclease pancreatic: KETAAAKFERQHMDSSTSAASSSNYCNQMMKSRNLTKDRCKPVNTFVHESLADVQAVCSQKNVACKNGQTNCYQSYSTMSITDCRETGSSKYPNCAYKTTQANKHIIVACEGNPYVPVHFDASV
modifications: 125I label; 12-14 folates
[7]; 100-fold molar excess of unligated folate
  reduction of uptake by competitive inhibition: 7 fold
[7]; KB cells, after 30 minutes
  molecules per cell internalized: 10^7 molecules per cell
Human HeLa cells
  uptake by HeLa cells: corresponding results
[8]
  brain tissue uptake (delivery across the blood/brain barrier): brain tissue's preferential uptake of the folate-labeled protein

B2: folate-labeled RNase: Bovine ribonuclease labeled with fluorescein isothiocyanate and further labeled with folate (conjugate, UniProt P61823 27-150, looked up)
Ribonuclease pancreatic: KETAAAKFERQHMDSSTSAASSSNYCNQMMKSRNLTKDRCKPVNTFVHESLADVQAVCSQKNVACKNGQTNCYQSYSTMSITDCRETGSSKYPNCAYKTTQANKHIIVACEGNPYVPVHFDASV
modifications: fluorescein and folate conjugated
KB cells [9]
  internal fluorescence (confocal microscope): Only the folate-labeled samples displayed any internal fluorescence
[10]
  cell fluorescence (fluorescence microscope): found to fluoresce

B3: RNase A-Rf (6): ^125 I ribonuclease derivatized with 6 riboflavins per protein (conjugate, UniProt P61823 27-150, looked up)
Ribonuclease pancreatic: KETAAAKFERQHMDSSTSAASSSNYCNQMMKSRNLTKDRCKPVNTFVHESLADVQAVCSQKNVACKNGQTNCYQSYSTMSITDCRETGSSKYPNCAYKTTQANKHIIVACEGNPYVPVHFDASV
modifications: 125I label; 6 riboflavins
notes: ^125 I ribonuclease derivatized with 6 riboflavins per protein
BHK cells
  uptake of ^125 I-ribonuclease by BHK cells: highest rate of uptake
